Assay results from ChEMBL document CHEMBL4765439, “Identification of the subtype-selective Sirt5 inhibitor balsalazide through systematic SAR analysis and rationalization via theoretical investigations” (Eur J Med Chem, 2020).
Activity calls are given as the source filed them. The rule behind the calls is not given here.

Legend:
[1] = molecular target: T1, NAD-dependent protein deacylase sirtuin-5, mitochondrial (Homo sapiens, UniProt Q9NXA8); assay: Inhibition of recombinant human SIRT5 at 50 uM using flour de lys succinyl as substrate in presence of NAD+ by fluorometric assay relative to control
Target sequence in this assay (Q9NXA8 37-310 limits assumed): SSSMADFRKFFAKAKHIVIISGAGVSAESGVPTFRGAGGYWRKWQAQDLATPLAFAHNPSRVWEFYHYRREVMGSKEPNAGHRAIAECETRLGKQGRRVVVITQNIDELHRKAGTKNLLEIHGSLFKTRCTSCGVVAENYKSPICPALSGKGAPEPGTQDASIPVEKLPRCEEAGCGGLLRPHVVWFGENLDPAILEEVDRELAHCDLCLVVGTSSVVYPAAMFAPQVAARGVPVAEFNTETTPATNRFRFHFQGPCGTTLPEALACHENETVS

[2] = molecular target: T1, NAD-dependent protein deacylase sirtuin-5, mitochondrial; assay: Inhibition of recombinant human SIRT5 using flour de lys succinyl as substrate in presence of NAD+ by fluorometric assay
Target sequence in this assay (Q9NXA8 whole entry): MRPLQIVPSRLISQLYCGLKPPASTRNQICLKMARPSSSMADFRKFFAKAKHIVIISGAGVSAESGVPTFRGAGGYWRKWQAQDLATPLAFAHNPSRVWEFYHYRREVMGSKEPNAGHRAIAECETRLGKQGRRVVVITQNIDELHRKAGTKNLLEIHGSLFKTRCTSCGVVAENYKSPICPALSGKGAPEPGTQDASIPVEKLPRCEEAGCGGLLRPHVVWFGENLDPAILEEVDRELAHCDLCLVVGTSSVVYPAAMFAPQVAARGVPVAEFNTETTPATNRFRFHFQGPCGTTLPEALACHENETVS

[3] = molecular target: T1, NAD-dependent protein deacylase sirtuin-5, mitochondrial; assay: Inhibition of SIRT5 (unknown origin)
Target sequence in this assay (Q9NXA8 whole entry): as above

[4] = molecular target: T2, NAD-dependent protein deacetylase sirtuin-1 (Homo sapiens) (UniProt Q96EB6); assay: (§1) Inhibition of recombinant human SIRT1 (133 to 747 residues) expressed in Escherichia coli BL21(DE3) at 50 uM using ZMAL as substrate incubated for 4 hrs in presence of NAD+ followed by incubation with trypsin for 20 mins by trypsin-coupled assay based homogenous fluorescence analysis relative to control; conditions: time 260.0 min
T2 sequence (whole entry): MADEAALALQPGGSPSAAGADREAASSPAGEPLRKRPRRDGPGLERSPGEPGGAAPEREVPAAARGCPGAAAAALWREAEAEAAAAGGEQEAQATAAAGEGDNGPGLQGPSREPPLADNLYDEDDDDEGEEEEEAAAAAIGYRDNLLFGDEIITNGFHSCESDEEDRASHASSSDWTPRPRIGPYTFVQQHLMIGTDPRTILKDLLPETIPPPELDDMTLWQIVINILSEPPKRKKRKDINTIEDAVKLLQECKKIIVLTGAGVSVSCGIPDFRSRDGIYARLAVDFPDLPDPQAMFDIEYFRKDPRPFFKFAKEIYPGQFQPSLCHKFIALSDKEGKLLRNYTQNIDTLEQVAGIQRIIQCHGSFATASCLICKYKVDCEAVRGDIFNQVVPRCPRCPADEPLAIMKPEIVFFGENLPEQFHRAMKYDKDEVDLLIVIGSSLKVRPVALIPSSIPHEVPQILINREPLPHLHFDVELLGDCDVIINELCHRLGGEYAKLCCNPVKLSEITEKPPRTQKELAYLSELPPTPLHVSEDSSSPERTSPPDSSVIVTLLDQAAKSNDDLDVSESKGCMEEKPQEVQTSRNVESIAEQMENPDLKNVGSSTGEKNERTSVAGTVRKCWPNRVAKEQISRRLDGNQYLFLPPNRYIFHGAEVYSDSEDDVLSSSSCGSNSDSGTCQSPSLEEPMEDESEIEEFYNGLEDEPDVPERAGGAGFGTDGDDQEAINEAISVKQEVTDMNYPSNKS

[5] = molecular target: T1, NAD-dependent protein deacylase sirtuin-5, mitochondrial; assay: Competitive inhibition of recombinant human SIRT5 assessed as substrate conversion at 50 uM using increasing concentration of ZKsA as substrate in presence of NAD+ by trypsin-coupled assay
Target sequence in this assay (Q9NXA8 37-310 limits assumed): as the sequence (Q9NXA8 37-310 limits assumed) above

[6] = molecular target: T1, NAD-dependent protein deacylase sirtuin-5, mitochondrial; assay: Competitive inhibition of recombinant human SIRT5 assessed as substrate conversion at 50 uM using ZKsA as substrate in presence of increasing concentration of NAD+ by trypsin-coupled assay
Target sequence in this assay (Q9NXA8 37-310 limits assumed): as above

[7] = molecular target: T3, NAD-dependent protein deacetylase sirtuin-2 (Homo sapiens) (UniProt Q8IXJ6); assay: as §1, with “SIRT2 (25” for “SIRT1 (133”, “389” for “747”; conditions: time 260.0 min
T3 sequence (whole entry): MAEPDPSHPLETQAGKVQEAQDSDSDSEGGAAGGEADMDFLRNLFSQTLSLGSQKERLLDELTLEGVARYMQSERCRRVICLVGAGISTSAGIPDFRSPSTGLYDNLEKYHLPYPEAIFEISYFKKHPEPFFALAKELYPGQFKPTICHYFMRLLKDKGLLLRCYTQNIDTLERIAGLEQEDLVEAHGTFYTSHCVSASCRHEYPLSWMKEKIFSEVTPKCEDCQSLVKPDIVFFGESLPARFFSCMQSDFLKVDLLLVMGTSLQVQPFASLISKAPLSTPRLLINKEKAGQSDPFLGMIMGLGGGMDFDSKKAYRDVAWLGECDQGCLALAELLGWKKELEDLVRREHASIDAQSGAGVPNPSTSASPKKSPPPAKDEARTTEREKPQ

[8] = molecular target: T2, NAD-dependent protein deacetylase sirtuin-1 (Homo sapiens); assay: as §1, with “100” for “50”; conditions: time 260.0 min
[9] = molecular target: T3, NAD-dependent protein deacetylase sirtuin-2 (Homo sapiens); assay: as §1, with “SIRT2 (25” for “SIRT1 (133”, “389” for “747”, “100” for “50”; conditions: time 260.0 min
[10] = molecular target: T4, NAD-dependent protein deacetylase sirtuin-3, mitochondrial (Homo sapiens) (UniProt Q9NTG7); assay: as §1, with “SIRT3 (101” for “SIRT1 (133”, “399” for “747”, “100” for “50”; conditions: time 260.0 min
T4 sequence (whole entry): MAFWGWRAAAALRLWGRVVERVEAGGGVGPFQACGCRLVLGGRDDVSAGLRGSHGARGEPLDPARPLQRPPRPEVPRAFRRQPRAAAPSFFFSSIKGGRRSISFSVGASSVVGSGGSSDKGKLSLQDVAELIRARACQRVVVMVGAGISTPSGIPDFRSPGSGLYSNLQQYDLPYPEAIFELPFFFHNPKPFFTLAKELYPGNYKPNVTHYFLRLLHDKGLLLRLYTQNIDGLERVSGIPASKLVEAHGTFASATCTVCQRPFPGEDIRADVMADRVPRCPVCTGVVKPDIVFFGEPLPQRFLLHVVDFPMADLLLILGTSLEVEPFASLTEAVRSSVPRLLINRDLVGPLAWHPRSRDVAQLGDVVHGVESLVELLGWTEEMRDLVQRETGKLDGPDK

SMILES: O=C(O)CCCC(=O)c1ccc(/N=N/c2ccc(O)c(C(=O)O)c2)cc1
- inhibition [1]: 54%

SMILES: O=C(O)CCC(=O)Nc1ccc(/N=N/c2ccc(O)c(C(=O)O)c2)cc1
- inhibition [1]: 26%

SMILES: O=C(O)CCNC(=O)c1ccc(/N=N/c2ccc(O)c(C(=O)O)c2)cc1 [BALSALAZIDE]
- IC50 [2]: 5.3 µM
- inhibition [1]: 83%
- IC50 [3]: 3.9 µM
- inhibition [4]: < 10%
- inhibition [5]: inactive
- inhibition [6]: inactive
- inhibition [7]: 11%

SMILES: O=C(O)CCNC(=O)c1ccc(/N=N/c2cccc(C(=O)O)c2)cc1
- inhibition [8]: inactive
- inhibition [1]: 63%
- inhibition [9]: < 25%
- inhibition [4]: < 10%
- inhibition [10]: inactive
- inhibition [7]: 21%

SMILES: O=C(O)CCNC(=O)c1ccc(/N=N/c2ccc(O)cc2)cc1
- inhibition [1]: 73%
- inhibition [4]: < 10%
- inhibition [5]: inactive
- inhibition [6]: inactive
- inhibition [7]: 26%

SMILES: O=C(O)CCCC(O)c1ccc(/N=N/c2ccc(O)c(C(=O)O)c2)cc1 (configuration not stated)
- inhibition [1]: 39%

SMILES: CCCNC(=O)c1ccc(/N=N/c2ccc(O)c(C(=O)O)c2)cc1
- inhibition [1]: 31%

SMILES: O=C(O)CCNCc1ccc(/N=N/c2ccc(O)c(C(=O)O)c2)cc1
- inhibition [1]: 27%
- inhibition [4]: < 10%
- inhibition [5]: inactive
- inhibition [6]: inactive
- inhibition [7]: 19%

SMILES: C[C@]12CC[C@@H]3c4ccc(O)cc4C[C@@H](CCCCCCCCC[S+]([O-])CCCC(F)(F)C(F)(F)F)[C@H]3[C@@H]1CC[C@@H]2O (some centres not stated) [FULVESTRANT]
- IC50 [3]: 2.6 µM

SMILES: O=C(O)CCNC(=O)c1ccc(/N=N/c2ccccc2)cc1
- inhibition [8]: inactive
- inhibition [1]: 62%
- inhibition [9]: < 25%
- inhibition [4]: < 10%
- inhibition [10]: inactive
- inhibition [7]: 16%

SMILES: Cc1ccc(C(=O)Nc2ccc(S(=O)(=O)O)c3cc(S(=O)(=O)O)cc(S(=O)(=O)O)c23)cc1NC(=O)c1cccc(NC(=O)Nc2cccc(C(=O)Nc3cc(C(=O)Nc4ccc(S(=O)(=O)O)c5cc(S(=O)(=O)O)cc(S(=O)(=O)O)c45)ccc3C)c2)c1
- inhibition [1]: 53%
- inhibition [4]: 95%

SMILES: O=C(O)CCCCc1ccc(/N=N/c2ccc(O)c(C(=O)O)c2)cc1
- inhibition [1]: 32%

SMILES: O=C(O)CCOCc1ccc(/N=N/c2ccc(O)c(C(=O)O)c2)cc1
- inhibition [1]: 33%

SMILES: NC(=O)c1cccnc1
- inhibition [4]: 21%
- inhibition [7]: 65%

SMILES: CC(C)(Sc1cc(C(C)(C)C)c(O)c(C(C)(C)C)c1)Sc1cc(C(C)(C)C)c(O)c(C(C)(C)C)c1 [PROBUCOL]
- IC50 [3]: 1.6 µM

SMILES: O=C(O)c1ccc(/N=N/c2ccc(O)c(C(=O)O)c2)cc1
- inhibition [1]: 27%

SMILES: C=C1c2cccc(O)c2C(=O)C2=C(O)[C@]3(O)C(=O)C(C(N)=O)=C(O)[C@@H](N(C)C)[C@@H]3[C@@H](O)[C@H]12 [METHACYCLINE]
- IC50 [3]: 3.6 µM

SMILES: O=C(O)CNC(=S)Nc1ccc(/N=N/c2ccc(O)c(C(=O)O)c2)cc1
- inhibition [1]: 24%

SMILES: CC1=C2C(=COC(C)C2C)C(O)=C(C(=O)O)C1=O (configuration not stated)
- IC50 [3]: 90 µM

SMILES: NC(=O)c1ccc(/N=N/c2ccc(O)c(C(=O)O)c2)cc1
- inhibition [1]: 32%

SMILES: Cc1cc(C(C#N)c2ccc(Cl)cc2)c(Cl)cc1NC(=O)c1cc(I)cc(I)c1O (configuration not stated) [CLOSANTEL]
- IC50 [3]: 2.7 µM
